Reference: ChEMBL document CHEMBL4043261, “Cytotoxic properties of the alkaloid rutaecarpine and its oligocyclic derivatives and chemical modifications to enhance water-solubility” (Bioorg Med Chem Lett, 2017)
In brackets after ≈: the same amount, converted by molar mass.

Key:
HeLa = assay: Cytotoxicity against human HeLa cells by MTT assay; format: functional, cell-based
[1] = Aqueous solubility of the compound in phosphate buffered saline at pH 7.4 after 24 hrs by HPLC-UV based shake-flask method; format: physicochemical
[2] = Intrinsic solubility of the compound at pH 2 by turbidimetric titration method; format: physicochemical; settings: buffer, read-out: Intrinsic_solubility
[3] = Aqueous solubility of the compound in phosphate buffered saline at pH 6.8 after 24 hrs by HPLC-UV based shake-flask method; format: physicochemical
[4] = Dissociation constant, pka of the compound by potentiometric titration method; format: physicochemical
[5] = Solubility of the compound in minimal essential medium at 1 to 2 mg after 24 hrs in absence of 10% FCS by HPLC-UV based shake-flask method; format: physicochemical; settings: BLD = below limit of detection
[6] = Solubility of the compound in minimal essential medium at 1 to 2 mg after 24 hrs in presence of 10% FCS by HPLC-UV based shake-flask method; format: physicochemical; settings: BLD = below limit of detection
[7] = Aqueous solubility of the compound in deionized water after 24 hrs by HPLC-UV based shake-flask method; format: physicochemical; settings: buffer
[8] = Solubility of the compound in water; format: physicochemical; settings: buffer
[9] = phosphate buffered saline, pH 7.4
[10] = phosphate buffered saline, pH 6.8

Compound | solubility [5] | solubility [6] | EC50 (HeLa) | also measured
O=c1c2cc(Cl)ccc2nc2n1CCc1c-2[nH]c2ccccc12 |  |  | 7.2 µM | 
Cl.O=c1c2cc(O)ccc2nc2n1CCc1c-2n(CCCN2CCCCC2)c2ccccc12 |  |  | 15.4 µM | solubility thermodynamic at 24 h [1, 9]: 441 µM; solubility [2]: 15.5 µM; solubility thermodynamic at 24 h [3, 10]: 1710 µM; pKa [4]: 8.8
O=c1c2cc(O)ccc2nc2n1CCc1ccccc1-2 |  |  | 53.9 µM | 
CCN(CC)CCCn1c2c(c3ccccc31)CCn1c-2nc2ccc(O)cc2c1=O.Cl |  |  | 9.8 µM | solubility thermodynamic at 24 h [1, 9]: 1900 µM; solubility [2]: 53.2 µM; solubility thermodynamic at 24 h [3, 10]: 7400 µM; pKa [4]: 8.94
O=c1c2sc3ncccc3c2nc2n1CCc1c-2[nH]c2ccccc12 |  |  | 22.1 µM | 
O=c1c2sc3ccccc3c2nc2n1CCc1c-2[nH]c2ccccc12 | Bld | Bld | 8.4 µM | 
CCN(CC)CCCOc1ccc2nc3n(c(=O)c2c1)CCc1c-3[nH]c2ccccc12.Cl |  |  | 17.1 µM | solubility thermodynamic at 24 h [1, 9]: 45.8 µM; solubility [2]: 0.7 µM; solubility thermodynamic at 24 h [3, 10]: 180 µM; pKa [4]: 9.29
COc1cc2nc3n(c(=O)c2cc1OC)CCc1c-3[nH]c2ccccc12 | Bld | Bld | 60.8 µM | 
O=c1c2cc(O)ccc2nc2n1CCc1c-2[nH]c2ccccc12 |  |  | 11.3 µM | 
C=C1C(=O)O[C@@H]2C[C@@H](C)[C@@H]3C=CC(=O)[C@@]3(C)[C@@H](O)[C@H]12 [HELENALIN] |  |  | 0.7 µM | 
O=c1c2ccccc2nc2n1CCc1ccccc1-2 |  |  | 64.2 µM | 

More lines, main results first:

solubility [5] | solubility [6] | Compound | EC50 (HeLa) | also measured
Bld | Bld | O=c1c2cc(Cl)ccc2nc2n1CCc1ccccc1-2 | 20.6 µM | 
Bld | Bld | O=c1c2ccccc2nc2n1CCc1c-2[nH]c2ccccc12 [RUTAECARPINE] | 26.1 µM | solubility thermodynamic at 24 h ([1]; buffer, pH 7.4, 24 h): 0.0271 µM (≈ 7.79 ng/mL); solubility [7]: 0.0328 µM (≈ 9.42 ng/mL); solubility thermodynamic at 24 h ([3]; buffer, pH 6.8, 24 h): 0.0257 µM (≈ 7.38 ng/mL); solubility [8]: 0.033 µM (≈ 9.48 ng/mL)
Bld | Bld | Cl.O=c1c2cc(OCCCN3CCCCC3)ccc2nc2n1CCc1c-2[nH]c2ccccc12 | 16.3 µM | solubility thermodynamic at 24 h [1, 9]: 5.62 µM; solubility [2]: 0.21 µM; solubility thermodynamic at 24 h [3, 10]: 21.8 µM; pKa [4]: 9.36
